# Source: publication PMC3654553, “A PPARγ ligand present in Actinidia fruit (Actinidia chrysantha) is identified as dilinolenoyl galactosyl glycerol” (Bioscience Reports, 2013)
# Assays:
# [1] = target: T1, PPARγ (peroxisome-proliferator-activated receptor γ) (Homo sapiens, UniProt P37231)
# T1 construct: gene PPARG
# T1 sequence (P37231 231-505 limits assumed): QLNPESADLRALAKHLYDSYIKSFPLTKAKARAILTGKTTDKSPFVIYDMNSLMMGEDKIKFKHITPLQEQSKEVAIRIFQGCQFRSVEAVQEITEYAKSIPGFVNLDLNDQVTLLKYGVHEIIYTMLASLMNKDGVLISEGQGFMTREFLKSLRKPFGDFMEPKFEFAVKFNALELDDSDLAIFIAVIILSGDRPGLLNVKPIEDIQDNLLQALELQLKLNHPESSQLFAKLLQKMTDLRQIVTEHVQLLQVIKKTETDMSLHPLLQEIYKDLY
# [2] = target: T1, PPARγ (peroxisome-proliferator-activated receptor γ); assay: competitive fluorescence polarization of HPLC fraction […], dilution series and time course; assay type: binding
# [3] = target: T1, PPARγ (peroxisome-proliferator-activated receptor γ); assay: competitive fluorescence polarization (PolarScreen PPARγ green), time course; intact protein ESI-MS shows no covalent adduct; assay type: binding
structure (smiles),measurement,setting,value
"CC/C=C\C/C=C\C/C=C\CCCCCCCC(=O)O [compound 5, α-linolenic acid]","competitive fluorescence polarization of HPLC fraction 5, dilution series",[1],α-linolenic acid and linoleic acid bind to PPARγ immediately under the assay conditions used
"CCCCC/C=C\C/C=C\CCCCCCCC(=O)O [compound 6, linoleic acid]","competitive fluorescence polarization of HPLC fraction 6, dilution series and ti",[2],α-linolenic acid and linoleic acid bind to PPARγ immediately under the assay conditions used
"CC/C=C\C/C=C\C/C=C\CCCCCCCC(=O)OC[C@H](CO[C@@H]1O[C@H](CO)[C@H](O)[C@H](O)[C@H]1O)OC(=O)CCCCCCC/C=C\C/C=C\C/C=C\CC [compound 11, DLGG]",IC50,[3],1640 nM
